From patent US10106557B2, “Preparation method for benzoxazoleoxazine ketone compound and intermediate and crystal form thereof” (NORTH CHINA PHARMACEUTICAL NEW DRUG R & D CO., LTD., priority 2014, dated 2018)

Columns and labels:
Assay type in all cases: biochemical
[1] = target: rat coagulation factor Xa (Rattus norvegicus (Rat), UniProt Q63207); assay: Rat coagulation factor Xa chromogenic assay; settings: purified enzyme, substrate S-2222, 37° C.; Ki from IC50 by Cheng-Prusoff; read-out: rfXa Ki
Method: (§1) The inhibitory ability of the compounds to be tested on Xa factor or other enzymes, such as thrombin or trypsin, in human or rats were determined by IC50 values, wherein the IC50 value was associated with the inhibition constant Ki. The purified enzyme was used in the chromogenic determination. […] By plotting a curve regarding the relative velocity of the hydrolysis (compared to the control group which was free of inhibition) on the logarithm of the concentration of the compounds and linear regression calculation, the concentration of the inhibitor leading to a 50% reduction of the rate of the hydrolysis of the substrate was determined. The enzyme inhibition constant (Ki) was calculated according to Cheng-Prusoff equation: Ki=IC50/(1+[S]/Km), where [S] was the substrate concentration and Km was the meter-Mann's constant determined by the double reciprocal mapping method. The IC50 values of the compounds were obtained by GraphPad Prism software. The curve is fitted by using the “shaped dose effect (variable slope)”.
The inhibitory activity on coagulation factor Xa activity in human or rats was measured by using Tris-HCl buffer (50 mM, pH 8.3, 150 mM NaCl).

[2] = target: human thrombin (Homo sapiens (Human), UniProt P00734); assay: Human thrombin assay; settings: substrate S-2238; Ki from IC50 by Cheng-Prusoff
Method: (§2) The inhibitory ability of the compounds to be tested on Xa factor or other enzymes, such as thrombin or trypsin, in human or rats were determined by IC50 values, wherein the IC50 value was associated with the inhibition constant Ki. The purified enzyme was used in the chromogenic determination. The initial rate of hydrolysis of the chromogenic substrate was determined by the variation of absorbance at 405 nm in the linear part on time (usually 2 to 10 minutes after the addition of the substrate) at 37° C. by using FlexStation III (USA Molecular Instruments). By plotting a curve regarding the relative velocity of the hydrolysis (compared to the control group which was free of inhibition) on the logarithm of the concentration of the compounds and linear regression calculation, the concentration of the inhibitor leading to a 50% reduction of the rate of the hydrolysis of the substrate was determined. The enzyme inhibition constant (Ki) was calculated according to Cheng-Prusoff equation: Ki=IC50/(1+[S]/Km), where [S] was the substrate concentration and Km was the meter-Mann's constant determined by the double reciprocal mapping method. The IC50 values of the compounds were obtained by GraphPad Prism software. The curve is fitted by using the “shaped dose effect (variable slope)”.
The inhibitory activity on human thrombin was determined by using a buffer (10 mM HEPES buffer, pH 7.4, 2 mM CaCl2). Appropriate wells in the Greiner 384 microtiter plate were used to determine IC50. A buffer contained 50 μL human thrombin (Sigma; T8885), the final concentration of which was 0.05 NIH unit/mL. A buffer containing 2 μL 2% (V/V) DMSO (control group which was free of inhibition) or various concentration of the compound to be tested was diluted in the buffer containing 2% (V/V) DMSO. A buffer containing 48 μL substrate S-2238 (Chromogenix; Chemical formula: H-D-Phe-Pip-Arg-pNA.2HCl) was added, the final concentration was 30 μM. In this assay, the compound to be tested and the enzyme were pre-incubated for 10 minutes, the substrate was added to give a final volume of 100 μL to start the assay.

[3] = target: human trypsin; assay: Human trypsin assay; settings: substrate S-2222; Ki from IC50 by Cheng-Prusoff
Method: as §2
The inhibitory activity on human trypsin was determined by using buffer (50 mM Tris, pH 8.2, and 20 mM CaCl2). Appropriate wells in the Greiner 384 microtiter plate were used to determine IC50. A buffer containing 50 μL human trypsin (Sigma; T6424), the final concentration was 0.39 BAEE unit/mL, a buffer containing 2 μL 2% (V/V) DMSO (control group which was free of inhibition) or various concentration of the compound to be tested was diluted in the buffer containing 2% (V/V) DMSO. A buffer containing substrate S-2222 (Chromogenix), the final concentration was 30 μM. In this assay, the compound to be tested and the enzyme were pre-incubated for 10 minutes and then 48 μL substrate was added to give a final volume of 100 μL to start the assay.

[4] = target: prothrombinase (Homo sapiens (Human), UniProt P00742); assay: Prothrombin assay (prothrombinase, thrombin production); settings: human factor Xa, human blood platelets, substrate S-2238
Method: as §1
The activity of the compound to be tested against prothrombinase was determined by the production of thrombin. In summary, 12.5 μL human factor Xa was incubated in 10 mM HEPES buffer and pH 7.4, 2 mM CaCl2, the final concentration was 0.5 nM, and 12.5 μL human blood platelets (1×10^7 mL^−1) was added at 37° C. After 10 mins, 25 μL prothrombin was added to initiate the reaction, the final concentration was 0.5 μM, a buffer containing 2 μL 2% (V/V) DMSO (control group which was free of inhibition) or various concentration of the compound was diluted in the buffer containing 2% (V/V) DMSO.

[5] = target: human coagulation factor Xa (Homo sapiens (Human), UniProt P00742); assay: Human coagulation factor Xa chromogenic assay; settings: purified enzyme, substrate S-2222, 37° C.; Ki from IC50 by Cheng-Prusoff; read-out: hfXa Ki
Method: as §2
The inhibitory activity on coagulation factor Xa activity in human or rats was measured by using Tris-HCl buffer (50 mM, pH 8.3, 150 mM NaCl). […] The buffer containing 2 μL 2% (V/V) DMSO (control group which was free of inhibition) or various concentrations of the compounds to be tested were diluted in the buffer containing 2% (V/V) DMSO, and 48 μL buffer of the supporting base S-2222 (Chromogenix; chemical formula: Bz-IIe-Glu(γ-OR)-Gly-Arg-pNA.HCl R═H (50%), wherein R═CH3 (50%)) was added, the final concentration was 0.172 mM.

human coagulation factor Xa, sequence (P00742 235-488): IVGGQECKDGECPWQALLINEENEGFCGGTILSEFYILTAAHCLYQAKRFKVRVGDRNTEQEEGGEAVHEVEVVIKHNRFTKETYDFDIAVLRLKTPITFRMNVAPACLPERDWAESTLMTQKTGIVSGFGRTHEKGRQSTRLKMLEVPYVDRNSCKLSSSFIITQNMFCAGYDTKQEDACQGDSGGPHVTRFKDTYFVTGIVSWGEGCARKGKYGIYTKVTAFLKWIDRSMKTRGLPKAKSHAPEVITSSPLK
human coagulation factor Xa, sequence (P00742 41-179): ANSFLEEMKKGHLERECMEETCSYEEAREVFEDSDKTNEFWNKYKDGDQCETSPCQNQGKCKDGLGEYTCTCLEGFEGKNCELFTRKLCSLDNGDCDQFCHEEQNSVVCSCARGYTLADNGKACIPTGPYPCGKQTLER
prothrombinase, sequence (P00742 235-488): as the sequence (P00742 235-488) above
prothrombinase, sequence (P00742 41-179): as the sequence (P00742 41-179) above
prothrombinase, sequence (P12259 29-737 partner): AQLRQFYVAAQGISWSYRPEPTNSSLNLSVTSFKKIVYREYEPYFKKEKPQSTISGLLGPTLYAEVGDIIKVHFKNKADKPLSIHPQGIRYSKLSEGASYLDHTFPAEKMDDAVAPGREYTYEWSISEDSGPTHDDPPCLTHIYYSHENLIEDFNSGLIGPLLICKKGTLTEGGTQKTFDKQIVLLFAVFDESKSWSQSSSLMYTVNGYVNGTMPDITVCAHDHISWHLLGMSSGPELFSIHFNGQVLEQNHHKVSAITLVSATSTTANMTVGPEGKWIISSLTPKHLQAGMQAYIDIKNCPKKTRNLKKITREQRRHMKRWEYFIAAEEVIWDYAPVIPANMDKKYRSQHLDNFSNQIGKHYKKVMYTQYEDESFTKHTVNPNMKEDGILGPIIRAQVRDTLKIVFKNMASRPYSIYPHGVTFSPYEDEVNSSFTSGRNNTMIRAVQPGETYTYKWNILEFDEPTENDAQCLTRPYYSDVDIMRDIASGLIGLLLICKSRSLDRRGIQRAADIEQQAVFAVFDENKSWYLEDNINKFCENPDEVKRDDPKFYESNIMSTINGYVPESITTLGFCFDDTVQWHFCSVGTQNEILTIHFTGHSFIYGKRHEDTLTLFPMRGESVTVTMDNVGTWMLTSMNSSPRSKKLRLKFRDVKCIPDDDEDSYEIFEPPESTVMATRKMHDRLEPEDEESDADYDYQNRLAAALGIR
prothrombinase, sequence (P12259 1574-2224 partner): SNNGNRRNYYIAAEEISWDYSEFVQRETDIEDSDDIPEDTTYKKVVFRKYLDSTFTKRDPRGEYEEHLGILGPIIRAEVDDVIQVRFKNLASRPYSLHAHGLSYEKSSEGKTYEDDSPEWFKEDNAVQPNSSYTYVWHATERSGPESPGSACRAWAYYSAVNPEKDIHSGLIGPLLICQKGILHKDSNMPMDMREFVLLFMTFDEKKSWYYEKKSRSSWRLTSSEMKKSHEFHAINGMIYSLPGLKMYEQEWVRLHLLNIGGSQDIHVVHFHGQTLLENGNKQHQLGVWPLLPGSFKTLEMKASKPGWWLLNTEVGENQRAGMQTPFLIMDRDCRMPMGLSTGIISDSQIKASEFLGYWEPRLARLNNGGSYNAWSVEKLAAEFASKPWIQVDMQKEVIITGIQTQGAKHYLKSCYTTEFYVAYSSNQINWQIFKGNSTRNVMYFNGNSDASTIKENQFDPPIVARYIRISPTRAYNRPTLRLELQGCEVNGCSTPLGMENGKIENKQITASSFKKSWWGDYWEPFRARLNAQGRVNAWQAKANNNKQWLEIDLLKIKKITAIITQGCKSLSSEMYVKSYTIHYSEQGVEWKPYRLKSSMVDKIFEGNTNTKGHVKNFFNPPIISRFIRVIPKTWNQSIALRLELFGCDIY
rat coagulation factor Xa, sequence (Q63207 232-482): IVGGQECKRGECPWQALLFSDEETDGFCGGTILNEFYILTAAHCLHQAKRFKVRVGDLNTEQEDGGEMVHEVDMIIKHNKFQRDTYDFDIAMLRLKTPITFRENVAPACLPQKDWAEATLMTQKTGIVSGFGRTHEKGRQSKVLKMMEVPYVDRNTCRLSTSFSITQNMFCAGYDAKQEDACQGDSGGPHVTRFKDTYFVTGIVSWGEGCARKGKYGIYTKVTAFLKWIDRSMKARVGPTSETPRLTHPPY
rat coagulation factor Xa, sequence (Q63207 41-180): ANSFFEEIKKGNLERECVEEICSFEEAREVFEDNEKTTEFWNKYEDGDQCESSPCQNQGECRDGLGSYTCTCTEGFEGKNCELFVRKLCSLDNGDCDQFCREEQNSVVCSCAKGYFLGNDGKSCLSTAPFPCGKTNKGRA

SMILES	Ki [1]	Ki [2]	Ki [3]	Ki [4]	Ki [5]
O=C(NC[C@@H]1OC(=O)N2c3ccc(N4CCCNC4=O)cc3OC[C@@H]12)c1ccc(Cl)s1 [Compound 7]	16.5 nM	> 1000 nM	> 20000 nM	4.41 nM	4.13 nM
O=C(NC[C@@H]1OC(=O)N2c3ccc(N4CCOCC4=O)cc3OC[C@@H]12)c1ccc(Cl)s1 [Compound 1, 5-chloro-N-(((3S,3aS)-1-one-7-(3-ketomorpholine)-1,3,3a,4-tetrahydrobenzo[b]oxazolo[3,4-d][1,4]oxazin-3-yl)methyl)thiophene-2-carboxamide]	2.87 nM	> 1000 nM	> 20000 nM	0.47 nM	1.01 nM
O=C(NC[C@@H]1OC(=O)N2c3ccc(-n4cncn4)cc3OC[C@@H]12)c1ccc(Cl)s1 [Compound 34]					106 nM
O=C(NC[C@@H]1OC(=O)N2c3ccc(-n4ccccc4=O)cc3OC[C@@H]12)c1ccc(Cl)s1 [Compound 8]	3.17 nM	> 1000 nM	> 20000 nM	0.9 nM	1.92 nM
COC[C@H]1CCCN1c1ccc2c(c1)OC[C@H]1[C@H](CNC(=O)c3ccc(Cl)s3)OC(=O)N21 [Compound 30]	21.5 nM	> 1000 nM	> 20000 nM	16.2 nM	9.71 nM
O=C(NC[C@@H]1OC(=O)N2c3ccc(N4CCCCC4=O)cc3OC[C@@H]12)c1ccc(Cl)s1 [Compound 2]	4.45 nM	> 1000 nM	> 20000 nM		
